# Legend:
# [1] = tested on: pulmonary fibrosis mice induced by bleomycin; experiment: Content determination of hydroxyproline in lung tissue (Embodiment 4); assay type: in vivo, C57BL/6 mice; conditions: 30 mg/kg and 60 mg/kg, prevention groups and treatment groups (FIG. 7); lower dose slightly better
# Experimental: (§1) Female C57BL/6 mice (eight-week-old) are established for models after 7 days, the time is set for the mice to adapt to the environment. After fasts for overnight, the mice are anaesthetized by 3% chloral hydrate and fixed. Sterilize and incise neck skin longitudinally as little injury as possible. Split fascia and muscle with tweezers longitudinally and expose the windpipe. Then, about 35 μl (3.5 mg/kg) bleomycin are injected into windpipe with microinjector. Put the mice upright rapidly and rotate the mice for 3˜5 minutes, so that bleomycin is able to enter into the pulmones uniformly. Observe the breathing of mice. Sterilize neck injury with 75% alcohol tampon and stitch the wound, then 1 drop or 2 drops of benzylpenicillin injection is/are dripped into the suture. Put the mice back into dry and clean cages, and feed them normally after waking up. Operations are done on operating table at about […]. Physiological saline using in injection is injected into windpipe of sham operation group.
# (§2) Model animals are divided into prevention groups and treatment groups, then drugs are given to the two groups respectively. According to internationally methods of drug administration, drugs are given continuously to the prevention groups by means of intragastric administration from the second day after successfully establishing model to the 14th day, and drugs are given continuously to treatment groups by means of intragastric administration from the 8th day after successfully establishing model to the 21th day. Groups and dosage regimen are shown in tab.1.
# Hydroxyproline mainly exists in collagen protein, but there is only a very small amounts in elastin proteins and it cannot found in other proteins. Therefore the content of collagen protein can be indicated by measuring the content of hydroxyproline, so as to evaluate the degree of pulmonary fibrosis. Method of test kit (which is purchased from Nanjing Jiancheng Biological Technology Co., Ltd.) according to specification is used in determination of hydroxyproline. Results can be seen in FIG. 7.
# [2] = tested on: pulmonary fibrosis mice induced by bleomycin; experiment: Determination of mice mortality (Embodiment 4); assay type: in vivo, C57BL/6 mice
# Experimental: as §1, §2
# From the 0th day (the day when the model is established) to 14th day, drugs are given continuously to prevention groups. From the 8th day after successfully establishing model to 21th day, drugs are given continuously to treatment groups. Statistical analysis of death of animals in each group is carried on every day and the survival rate of animals in each group is calculated. Results are shown in tab.2.
# [3] = tested on: pulmonary fibrosis mice induced by bleomycin; experiment: Detection of the mice lung index (Embodiment 4); assay type: in vivo, C57BL/6 mice; conditions: 30 and 60 mg/kg, prevention groups and treatment groups, versus model group (FIG. 2); lower dose better in prevention groups
# Experimental: as §1, §2
# After the last intragastric administration, the mice are killed to strip and weigh the lung, and the lung index is the lung weight divided by mouse weight (FIG. 2). […] In general, the 3 compounds have better effect in decreasing the mortality of mice than the positive drug pirfenidone.
# cough reflex pathway = conditions: in vivo; cited from earlier work
# TGF-β1 = experiment: ELISA content determination of TGF-β1 in mice lung tissue (Embodiment 4); assay type: in vivo, C57BL/6 mice; conditions: for content of TGF-β1 in lung tissue (ELISA): 30 mg/kg and 60 mg/kg, prevention groups and treatment groups, versus model group (FIG. 8), lower dose more effective; for effect on content of TGF-β1, comparison among compounds: ELISA, lung tissue
# Experimental: as §1, §2
# TGF-β1 is a universally recognized strong pro-fibrotic cytokine. It can stimulate the cells to synthesize and secrete extracellular matrix as well as exchange the activity of matrix-degrading enzyme component and directly increase the deposition of ECM. The progress of pulmonary fibrosis can be slowed down by decreasing the content of TGF-β1 in lung tissue. Elisa test kit (which is purchased from Shanghai Excell Biological Technology Co., Ltd.) according to specification is used in the determination of TGF-β1 in mice lung tissue. Results can be seen in FIG. 8.
# [4] = tested on: pulmonary fibrosis mice induced by bleomycin; experiment: HE stained pathological evaluation and inflammation scores (Embodiment 4); assay type: in vivo, C57BL/6 mice; conditions: for lung tissue inflammation scores (HE stained, grade 0-3): 30, 60 mg/kg, prevention and treatment groups (FIG. 4), lower dose better; for pulmonary inflammation and injury, HE stained pathological changes: prevention groups and treatment groups (FIG. 3), lower dose (30 mg/kg) better than higher dose
# Experimental: as §1, §2
# After the last intragastric administration, the mice are anaesthetized and killed to collect the lung tissue. Immerse the left lobule in 10% formalin, and embed it by paraffin after being fixed, then cut it into slices to observe the pathological changes by HE staining. As is shown in FIG. 3, structures of lobules of sham operation group are normal and the alveolar walls are complete without inflammation and fibrosis pathological changes. Obvious inflammation injury and masses of tissue begin to appear in lung of mice in model group, then the normal lung tissue disappears and alveolar is blocked. […] The groups with lower dose (30 mg/kg) of the 3 compounds show better effect than the groups with higher dose. The pulmonary inflammation disappears and alveolar structure is clear in groups with lower dose.
# Inflammatory classification semi quantitative statistics analysis is made according to results of HE staining. Grade 0 represents normal tissue or minimal inflammation change. Grade 1 (+) represents mild to moderate inflammation change, and lung tissue without obvious damage. Grade 2 (++) represents moderate to severe inflammation injury, and alveolar septum is thickened to form masses of tissue, or lung tissue with damage caused by partial area inflammation. Grade 3 (+++) represents severe inflammation injury, and structure of restricted regions in lung tissue is severely damaged, thus resulting in obliteration. […] The groups with lower dose show better effect than the groups with higher dose. In general, the 3 compounds have better effect in decreasing the pulmonary inflammation than the positive drug pirfenidone.
# [5] = tested on: pulmonary fibrosis mice induced by bleomycin; experiment: Masson stained pathological evaluation and imaging analysis of collagen (Embodiment 4); assay type: in vivo, C57BL/6 mice; conditions: for collagen deposition (Masson staining, integrated optical density): 30, 60 mg/kg, prevention and treatment groups (FIG. 5, 6), lower dose better in prevention, higher dose better in treatment
# Experimental: as §1, §2
# Masson staining is a method aiming at specific staining of fibrillar collagen. After the last intragastric administration, the mice are anaesthetized and killed to collect the lung tissue. Immerse the left lobule in 10% formalin, and embed it by paraffin after being fixed, then is cut it into slices to observe the collagen deposition by Masson staining. Semi quantitative analysis is made by using Image-Pro Plus6.0. Integrated optical density (IOD) of collagen in each visual field is measured after Masson staining. 5 samples are studied in each group and 5 visual fields are picked out from each group. Statistics analysis is made by calculating mean value which is considered as relative amount of collagen in each group.
# [6] = tested on: pulmonary fibrosis mice induced by bleomycin; experiment: Activity of 8 alkaloids and pentoxyverine against pulmonary fibrosis in mice (Embodiment 3); assay type: in vivo, C57BL/6 mice; conditions: intragastric from first day after model to 21th day; for pulmonary inflammation, injury and fibrosis in HE and Masson stained pathological sections: alkaloids and pentoxyverine 30 mg/kg (FIG. 1B, 1C)
# Experimental: as §1
# Experimental mice are randomly divided into 12 groups: 10 mice in model group, 10 mice in pentoxyverine group, and 5 mice in any other group. Group 1 is sham operation group, group 2 is model group, group 3 is pentoxyverine group, group 4 is positive drug pirfenidone group, groups 5-12 are compounds I-VIII administration group respectively. Models of groups 2-12 are established by using bleomycin with the same method used in embodiment 2. From the first day after successfully establishing model, 30 mg/kg pentoxyverine and 300 mg/kg pirfenidone are given to group 3 and group 4 by means of intragastric administration respectively. 30 mg/kg compounds I-VIII are given to groups 5-12 also by means of intragastric administration respectively. Besides, same doses of solvent are given to sham operation group and model group until the 21th day. After the last intragastric administration, the mice are killed to collect the lung tissue, and the right lobule is used for determining the content of hydroxyproline, while the left lobule is used for preparing pathological sections.
# [7] = tested on: cough of guinea pig induced by citric acid; conditions: cited from earlier work
# [8] = prevention groups, 30 mg/kg intragastric to the 14th day
# [9] = prevention groups, 30 mg/kg intragastric to the 14th day, 10 animals
# [10] = prevention groups, 60 mg/kg intragastric to the 14th day
# [11] = prevention groups, 60 mg/kg intragastric to the 14th day, 10 animals
# [12] = treatment groups, 30 mg/kg intragastric from the 8th to the 21th day
# [13] = treatment groups, 30 mg/kg intragastric from the 8th to the 21th day, 18 animals
# [14] = treatment groups, 60 mg/kg intragastric from the 8th to the 21th day
# [15] = treatment groups, 60 mg/kg intragastric from the 8th to the 21th day, 18 animals
structure (smiles),measurement,setting,value
"CC[C@@H]1[C@H]2CCCCN3[C@H]2[C@H](C[C@H]3[C@@H]2C[C@H](C)C(=O)O2)[C@@H]2[C@H]1OC(=O)[C@H]2C [Compound I, Tuberostemonine]",content of hydroxyproline in lung tissue,[1],effectively decrease the content of hydroxyproline
same,Survival rate,[2]; [8],100%
same,Mortality (number of dead animals),[2]; [9],0
same,Survival rate,[2]; [10],90%
same,Mortality (number of dead animals),[2]; [11],1
same,"protective effect on model mice (mortality), comparison among compounds","[2]; prevention groups, lower dose (30 mg/kg) better",more effective than compound VIII
same,Survival rate,[2]; [12],89%
same,Mortality (number of dead animals),[2]; [13],2
same,Survival rate,[2]; [14],83%
same,Mortality (number of dead animals),[2]; [15],3
same,lung index (lung weight divided by mouse weight),[3],significantly decrease the lung index
same,"antitussive activities, comparison among stemona tuberosa alkaloids",cough reflex pathway,weaker
same,content of TGF-β1 in lung tissue (ELISA),TGF-β1,effectively decrease the content of TGF-β1
same,"effect on content of TGF-β1, comparison among compounds",TGF-β1,slightly better than that of compound VII
same,"lung tissue inflammation scores (HE stained, grade 0-3)",[4],significantly decrease the pulmonary inflammation
same,"pulmonary inflammation and injury, HE stained pathological changes",[4],significantly alleviate the pulmonary inflammation
same,"collagen deposition (Masson staining, integrated optical density)",[5],significantly decrease collagen deposition
same,"effect in decreasing the collagen deposition, comparison among compounds","[5]; in general, Masson staining",slightly better than that of compound VIII
same,"pulmonary inflammation, injury and fibrosis in HE and Masson stained pathological sections",[6],recover to nearly normal structure
"CC[C@@H]1[C@H]2CCCCN3[C@H]2[C@H](C[C@@H]3[C@@H]2C[C@H](C)C(=O)O2)[C@@H]2[C@H]1OC(=O)[C@H]2C [Compound II, Tuberostemonine A]","pulmonary inflammation, injury and fibrosis in HE and Masson stained pathological sections",[6],recover to nearly normal structure
"CC[C@@H]1[C@@H]2CCCCN3[C@@H]2[C@@H](C[C@H]3[C@@H]2C[C@H](C)C(=O)O2)[C@H]2[C@@H]1OC(=O)[C@H]2C [Compound III, Tuberostemonine J]",antitussive effect,[7],very good antitussive effect
same,antitussive effect compared with codein,[7],weaker antitussive effect than that of codein
same,"pulmonary inflammation, injury and fibrosis in HE and Masson stained pathological sections",[6],recover to nearly normal structure
"CC[C@@H]1[C@H]2CCCCN3[C@@H]2[C@@H](C[C@H]3[C@@H]2C[C@H](C)C(=O)O2)[C@H]2[C@@H]1OC(=O)[C@H]2C [Compound IV, Tuberostemonine H]",antitussive effect,[7],very good antitussive effect
same,antitussive effect compared with codein,[7],weaker antitussive effect than that of codein
"CC[C@@H]1[C@H]2CCCCN3CC[C@H]([C@@H]4[C@H]1OC(=O)[C@@H]4C)[C@@H]23 [Compound VIII, Sessilifoline B]",content of hydroxyproline in lung tissue,[1],effectively decrease the content of hydroxyproline
same,Survival rate,[2]; [8],90%
same,Mortality (number of dead animals),[2]; [9],1
same,Survival rate,[2]; [10],80%
same,Mortality (number of dead animals),[2]; [11],2
same,Survival rate,[2]; [12],83%
same,Mortality (number of dead animals),[2]; [13],3
same,Survival rate,[2]; [14],78%
same,Mortality (number of dead animals),[2]; [15],4
same,lung index (lung weight divided by mouse weight),[3],significantly decrease the lung index
same,content of TGF-β1 in lung tissue (ELISA),TGF-β1,effectively decrease the content of TGF-β1
same,"effect on content of TGF-β1, comparison among compounds",TGF-β1,slightly better than that of compound VII
same,"lung tissue inflammation scores (HE stained, grade 0-3)",[4],significantly decrease the pulmonary inflammation
same,"pulmonary inflammation and injury, HE stained pathological changes",[4],significantly alleviate the pulmonary inflammation
same,"collagen deposition (Masson staining, integrated optical density)",[5],significantly decrease collagen deposition
same,"pulmonary inflammation, injury and fibrosis in HE and Masson stained pathological sections",[6],recover to nearly normal structure
"CCN(CC)CCOCCOC(=O)C1(c2ccccc2)CCCC1 [Pentoxyverine, pentoxyverine, reference compound]","pulmonary inflammation, injury and fibrosis in HE and Masson stained pathological sections",[6],cannot decrease the degree of pulmonary injury and fibrosis
same,content of hydroxyproline in lung tissue,"[6]; alkaloids and pentoxyverine 30 mg/kg, pirfenidone 300 mg/kg, versus model group (FIG. 1A)",no significant difference
"C[C@@H]1C[C@]2(CCCCN3[C@H]2CC[C@H]3[C@@H]2C[C@H](C)C(=O)O2)OC1=O [croomine, reference compound]","antitussive activities, comparison among stemona tuberosa alkaloids",cough reflex pathway,similar
"CC[C@@H]1[C@H]2CCCCN3CC[C@@H]([C@H]4[C@@H]1OC(=O)[C@H]4C)[C@@H]23 [isostenine, reference compound]",antitussive effect,[7],very good antitussive effect
"CC[C@H]1[C@H]2[C@@H](CCCN3[C@H]2CC[C@H]3[C@@H]2C[C@H](C)C(=O)O2)O[C@]12C=C(C)C(=O)O2 [stemoninine, reference compound]","antitussive activities, comparison among stemona tuberosa alkaloids",cough reflex pathway,similar

# From patent publication US9943524B2, “Use of alkaloid in preparing pharmaceutical compositions for preventing or treating pulmonary fibrosis” (China Pharmaceutical University, priority 2014, dated 2018)
